One experiment deals with T1, calcineurin (Homo sapiens, UniProt Q08209).
T1 construct: purchased Biomol
In words: Phosphatase activity assay (Biomol Green Assay-Kit), calcineurin. In kind it is biochemical. The settings on record: 1 nM tautomycin. The protocol:
(§1) Activity of recombinant PP1 (NEB) and calcineurin (Biomol) was measured with and without 1 nM tautomycin using the Biomol Green Assay-Kit (Biomol) according to manufacturer's instruction.

The target in the next experiment is T2, recombinant PP1 (Oryctolagus cuniculus, UniProt P62139).
T2 construct: purchased NEB
Put plainly: PP1 activity assay (Biomol Green Assay-Kit). In kind it is biochemical. The following applies: 1 nM tautomycin. The protocol:
as §1

Experiment [1] deals with hippocampal LTP in slices from arcAβ mice and wt littermates. In words: Tautomycin bath application to acute hippocampal slices, LTP measurement (fEPSP recordings). In kind it is cell-based, mouse. The following applies: 1 nM tautomycin, at least 1 h before recording.
Experiment [2] deals with hippocampal LTP in slices from wildtype, I-1* control and I-1* transgenic mice. Put plainly: Aβ-oligomers bath application to acute hippocampal slices, LTP measurement. In kind it is cell-based, mouse.

Entries after “also recorded” stand apart in the source; their conditions may differ.

T1 sequence (P63098 2-170, other chains not shown): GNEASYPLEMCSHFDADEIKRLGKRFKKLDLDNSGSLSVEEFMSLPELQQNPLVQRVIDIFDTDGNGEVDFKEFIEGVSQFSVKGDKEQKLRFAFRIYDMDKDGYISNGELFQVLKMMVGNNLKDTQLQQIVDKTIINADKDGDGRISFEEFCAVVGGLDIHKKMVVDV
T2 sequence (P62139 whole entry): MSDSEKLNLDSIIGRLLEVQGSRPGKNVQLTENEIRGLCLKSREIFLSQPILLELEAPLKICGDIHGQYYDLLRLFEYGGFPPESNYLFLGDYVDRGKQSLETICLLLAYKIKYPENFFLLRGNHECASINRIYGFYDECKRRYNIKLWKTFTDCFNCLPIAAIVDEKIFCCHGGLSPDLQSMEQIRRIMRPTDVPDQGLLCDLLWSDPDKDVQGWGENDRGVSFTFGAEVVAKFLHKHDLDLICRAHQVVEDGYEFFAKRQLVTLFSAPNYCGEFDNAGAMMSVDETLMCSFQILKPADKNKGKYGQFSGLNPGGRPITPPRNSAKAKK

The term inhibition denotes the percentage by which the read-out fell short of the control. Take `CO[C@H]([C@H](O)CC(=O)[C@@H](C)[C@@H](O)CC[C@@H](C)[C@@H]1O[C@]2(CC[C@@H](C)[C@H](CC[C@H](C)C(C)=O)O2)CC[C@@H]1C)[C@H](OC(=O)C[C@@H](O)C1=C(C)C(=O)OC1=O)C(C)C` [tautomycin]: on calcineurin, the inhibition at 0.001 µM was below 10% and the “inhibition of calcineurin activity (in words)” value is “not calcineurin”. On recombinant PP1, the inhibition at 0.001 µM was around 90% and the “inhibition of recombinant PP1 activity (in words)” value is on record as “specifically inhibits the activity of recombinant PP1”. In experiment [1] (3 months old arcAβ mice), the “effect on LTP deficit in slices from arcAβ (tg) mice (in words)” value was “fully rescued the LTP deficit; also recorded: full rescue of LTP”. Besides, the “effect on LTP in slices from wt (non-transgenic) mice (in words)” value in experiment [1] (wt littermates) was “has no effect”.

With “Aβ-oligomers: oligomers produced from synthetic Aβ 1-42 (Bachem) according to Klein”, the “effect on LTP in slices from I-1* control mice (in words)” value in experiment [2] (Aβ-oligomers bath-applied at least 1 h, I-1* littermate controls) is recorded as “impair LTP; also recorded: Aβ-oligomers mediated LTP deficit”. In addition, the “effect on LTP in slices from I-1* transgenic (mutant) mice with reduced PP1 activity (in words)” value in experiment [2] (Aβ-oligomers bath-applied at least 1 h, I-1* transgenic mice) is given as “not in mutant mice; also recorded: failed to inhibit LTP”. In experiment [2] (Aβ-oligomers corresponding to 0.5 μM initial peptide, bath-applied at least 1 h), the “effect on LTP in slices from wildtype mice (in words)” value is reported as “impair LTP; also recorded: LTP was inhibited”.

The values are drawn from patent US20110086908A9, “USE OF PHOSPHATASE INHIBITORS FOR THE TREATMENT OF NEURODEGENERATIVE DISEASES” (priority 2007, published 2011).
